Where a SMILES comes first, the peptide text is derived from it. Bridges are numbered along the chain shown (N, C = ends). [ ]: non-standard residue; d: D form. The star is where a group is joined. Stearoyl = CCCCCCCCCCCCCCCCCC(=O)*; Myristoyl = CCCCCCCCCCCCCC(=O)*; Aib = CC(C)(N)C(=O)O; Bz = O=C(c1ccccc1)*
Key:
Type in all cases: cell-based
[1] = target: T1, GIP receptor (Homo sapiens, UniProt P48546); assay: cAMP synthesis functional assay (firefly luciferase reporter in HEK293 cells), GIP receptor; details: for EC50: GIP Receptor EC50, cAMP luciferase reporter assay as in Example 16
T1 construct: expressed in transfected cells; host or cells: HEK293
T1 sequence (P48546 22-466): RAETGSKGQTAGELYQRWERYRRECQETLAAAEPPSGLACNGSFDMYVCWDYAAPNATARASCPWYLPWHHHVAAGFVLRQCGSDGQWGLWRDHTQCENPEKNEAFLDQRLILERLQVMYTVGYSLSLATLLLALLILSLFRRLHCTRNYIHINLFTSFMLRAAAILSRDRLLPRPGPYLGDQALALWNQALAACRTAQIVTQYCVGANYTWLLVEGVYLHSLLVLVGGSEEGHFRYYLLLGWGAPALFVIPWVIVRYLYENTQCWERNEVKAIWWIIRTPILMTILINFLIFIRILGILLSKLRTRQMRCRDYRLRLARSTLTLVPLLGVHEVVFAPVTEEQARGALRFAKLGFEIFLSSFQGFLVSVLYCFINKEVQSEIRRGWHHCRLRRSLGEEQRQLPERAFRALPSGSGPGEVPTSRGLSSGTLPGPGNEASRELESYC

[2] = target: T2, GLP-1 receptor (Homo sapiens, UniProt P43220); assay: cAMP synthesis functional assay (firefly luciferase reporter in HEK293 cells), GLP-1 receptor
T2 construct: expressed in transfected cells; host or cells: HEK293
T2 sequence (P43220 24-463, species assumed): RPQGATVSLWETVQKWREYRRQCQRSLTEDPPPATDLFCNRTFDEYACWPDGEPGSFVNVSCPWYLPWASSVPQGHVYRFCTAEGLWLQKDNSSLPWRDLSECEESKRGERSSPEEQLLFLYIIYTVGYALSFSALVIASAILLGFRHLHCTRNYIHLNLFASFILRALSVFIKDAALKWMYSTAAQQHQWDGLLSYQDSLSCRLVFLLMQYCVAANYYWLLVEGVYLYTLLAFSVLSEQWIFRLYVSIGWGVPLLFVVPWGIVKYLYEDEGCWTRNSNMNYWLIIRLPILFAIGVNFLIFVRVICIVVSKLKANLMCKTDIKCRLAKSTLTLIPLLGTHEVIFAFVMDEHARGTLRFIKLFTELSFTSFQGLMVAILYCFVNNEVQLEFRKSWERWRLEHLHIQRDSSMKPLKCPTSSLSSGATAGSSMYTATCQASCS

[3] = target: T3, glucagon receptor (Homo sapiens, UniProt P47871); assay: cAMP synthesis functional assay (firefly luciferase reporter in HEK293 cells), glucagon receptor
T3 construct: expressed in transfected cells; host or cells: HEK293
T3 sequence (P47871 26-477): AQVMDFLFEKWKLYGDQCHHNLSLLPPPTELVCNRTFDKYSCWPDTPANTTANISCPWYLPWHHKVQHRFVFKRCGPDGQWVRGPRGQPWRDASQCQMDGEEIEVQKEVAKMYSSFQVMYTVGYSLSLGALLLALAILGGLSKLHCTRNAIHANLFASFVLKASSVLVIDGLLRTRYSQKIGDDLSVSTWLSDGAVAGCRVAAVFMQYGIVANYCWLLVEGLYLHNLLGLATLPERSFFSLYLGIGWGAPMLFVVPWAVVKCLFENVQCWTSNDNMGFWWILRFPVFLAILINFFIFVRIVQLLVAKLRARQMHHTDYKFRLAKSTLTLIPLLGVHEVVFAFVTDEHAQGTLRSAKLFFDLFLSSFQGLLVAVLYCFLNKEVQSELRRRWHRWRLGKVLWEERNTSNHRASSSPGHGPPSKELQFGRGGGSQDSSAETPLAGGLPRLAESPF

[4] = relative to the standard (Std.) EC50 of the same run
[5] = GLP-1 Receptor EC50, cAMP luciferase reporter assay as in Example 16
[6] = Glucagon Receptor EC50, cAMP luciferase reporter assay as in Example 16
[7] = Table 1, relative to the native hormone of the indicated receptor

Row | Structure (SMILES) | EC50 [1] [nM] | GIP Receptor relative activity [1, 4] [%] | EC50 [2, 5] [nM] | GLP-1 Receptor relative activity [2, 4] [%] | EC50 [3, 6] [nM] | Glucagon Receptor relative activity [3, 4] [%] | GIP Receptor relative activity [1, 7] [%] | EC50 ([2]; GLP-1 Receptor EC50, nM, Table 1) [nM] | GLP-1 Receptor relative activity [2, 7] [%] | Glucagon Receptor relative activity [3, 7] [%] | EC50 ([3]; Glucagon Receptor EC50, nM, Table 1) [nM]
1 | CCCCCCCCCCCCCCCCCC(=O)NCCCC[C@H](NC(=O)[C@H](CC(=O)O)NC(=O)[C@H](CO)NC(=O)[C@@H](NC(=O)[C@H](Cc1ccccc1)NC(=O)[C@@H](NC(=O)CNC(=O)[C@H](CCC(=O)O)NC(=O)C(C)(C)NC(=O)[C@@H](N)Cc1ccc(O)cc1)[C@@H](C)O)[C@@H](C)O)C(=O)N[C@@H](CO)C(=O)N[C@H](C(=O)N[C@@H](Cc1ccc(O)cc1)C(=O)N[C@@H](CC(C)C)C(=O)N[C@@H](CC(=O)O)C(=O)N[C@@H](CCCCN)C(=O)N[C@@H](CCC(N)=O)C(=O)N[C@@H](C)C(=O)N[C@@H](C)C(=O)NC(C)(C)C(=O)N[C@@H](CCC(=O)O)C(=O)N[C@@H](Cc1ccccc1)C(=O)N[C@H](C(=O)N[C@@H](CC(N)=O)C(=O)N[C@@H](Cc1c[nH]c2ccccc12)C(=O)N[C@@H](CC(C)C)C(=O)N[C@@H](CC(C)C)C(=O)N[C@@H](C)C(=O)NCC(=O)NCC(=O)N1CCC[C@H]1C(=O)N[C@@H](CO)C(=O)N[C@@H](CO)C(=O)NCC(=O)N[C@@H](C)C(=O)N1CCC[C@H]1C(=O)N1CCC[C@H]1C(=O)N1CCC[C@H]1C(=O)N[C@@H](CO)C(N)=O)C(C)C)[C@@H](C)CC [mt-271] (H-Y[Aib]EGTFTSDK(Stearoyl)SIYLDKQAA[Aib]EFVNWLLAGGPSSGAPPPS-NH2; N-terminus assumed) | 0.0056 | 142.86 | 0.0106 | 185.85 | 113 | 0.17 |  |  |  |  | 
2 | CC[C@H](C)[C@H](NC(=O)[C@H](CO)NC(=O)[C@H](CCCCN)NC(=O)[C@H](CC(=O)O)NC(=O)[C@H](CO)NC(=O)[C@@H](NC(=O)[C@H](Cc1ccccc1)NC(=O)[C@@H](NC(=O)CNC(=O)[C@H](CCC(=O)O)NC(=O)C(C)(C)NC(=O)[C@@H](N)Cc1ccc(O)cc1)[C@@H](C)O)[C@@H](C)O)C(=O)N[C@@H](Cc1ccc(O)cc1)C(=O)N[C@@H](CC(C)C)C(=O)N[C@@H](CC(=O)O)C(=O)N[C@@H](CCCCN)C(=O)N[C@@H](CCC(N)=O)C(=O)N[C@@H](C)C(=O)N[C@@H](C)C(=O)NC(C)(C)C(=O)N[C@@H](CCC(=O)O)C(=O)N[C@@H](Cc1ccccc1)C(=O)N[C@H](C(=O)N[C@@H](CC(N)=O)C(=O)N[C@@H](Cc1c[nH]c2ccccc12)C(=O)N[C@@H](CC(C)C)C(=O)N[C@@H](CC(C)C)C(=O)N[C@@H](C)C(=O)NCC(=O)NCC(=O)N1CCC[C@H]1C(=O)N[C@@H](CO)C(=O)N[C@@H](CO)C(=O)NCC(=O)N[C@@H](C)C(=O)N1CCC[C@H]1C(=O)N1CCC[C@H]1C(=O)N1CCC[C@H]1C(=O)N[C@@H](CO)C(N)=O)C(C)C [mt-272] (H-Y[Aib]EGTFTSDKSIYLDKQAA[Aib]EFVNWLLAGGPSSGAPPPS-NH2; N-terminus assumed) | 0.0241 | 33.20 | 1.23 | 1.60 | 1060 | 0.02 |  |  |  |  | 
3 | CSCC[C@H](NC(=O)[C@H](Cc1ccc(O)cc1)NC(=O)[C@H](CCCCN)NC(=O)[C@H](CO)NC(=O)[C@H](Cc1ccc(O)cc1)NC(=O)[C@H](CC(=O)O)NC(=O)[C@H](CO)NC(=O)[C@@H](NC(=O)[C@H](Cc1ccccc1)NC(=O)[C@@H](NC(=O)CNC(=O)[C@H](CCC(N)=O)NC(=O)[C@H](CO)NC(=O)[C@@H](N)Cc1ccc(O)cc1)[C@@H](C)O)[C@@H](C)O)C(=O)N[C@@H](CC(=O)O)C(=O)N[C@H]1CCC(=O)NCCCC[C@@H](C(=O)N[C@@H](CCC(=O)O)C(=O)N[C@@H](Cc2ccccc2)C(=O)N[C@H](C(=O)N[C@@H](CC(N)=O)C(=O)N[C@@H](Cc2c[nH]c3ccccc23)C(=O)N[C@@H](CC(C)C)C(=O)N[C@@H](CC(C)C)C(=O)N[C@@H](C)C(=O)NCC(=O)NCC(=O)N2CCC[C@H]2C(=O)N[C@@H](CO)C(=O)N[C@@H](CO)C(=O)NCC(=O)N[C@@H](C)C(=O)N2CCC[C@H]2C(=O)N2CCC[C@H]2C(=O)N2CCC[C@H]2C(=O)N[C@@H](CO)C(N)=O)C(C)C)NC(=O)[C@H](C)NC(=O)[C@H](C)NC(=O)[C@H](CCC(N)=O)NC1=O [mt-141] (H-YSQGTFTSDYSKYMDEQAAKEFVNWLLAGGPSSGAPPPS-NH2; lactam 16-20; N-terminus assumed) |  |  |  |  |  |  | 10.04 | 0.16 | 36.78 | 269.33 | 
4 | CC[C@H](C)[C@H](NC(=O)[C@H](CO)NC(=O)[C@H](Cc1ccc(O)cc1)NC(=O)[C@H](CC(=O)O)NC(=O)[C@H](CO)NC(=O)[C@@H](NC(=O)[C@H](Cc1ccccc1)NC(=O)[C@@H](NC(=O)CNC(=O)[C@H](CCC(N)=O)NC(=O)[C@H](CO)NC(=O)[C@@H](N)Cc1ccc(O)cc1)[C@@H](C)O)[C@@H](C)O)C(=O)N[C@@H](Cc1ccc(O)cc1)C(=O)N[C@@H](CC(C)C)C(=O)N[C@@H](CC(=O)O)C(=O)N[C@@H](CCC(=O)O)C(=O)N[C@@H](CCC(N)=O)C(=O)N[C@H]1CCCCNC(=O)CC[C@@H](C(=O)N[C@@H](Cc2ccccc2)C(=O)N[C@H](C(=O)N[C@@H](CC(N)=O)C(=O)N[C@@H](Cc2c[nH]c3ccccc23)C(=O)N[C@@H](CC(C)C)C(=O)N[C@@H](CC(C)C)C(=O)N[C@@H](C)C(=O)NCC(=O)NCC(=O)N2CCC[C@H]2C(=O)N[C@@H](CO)C(=O)N[C@@H](CO)C(=O)NCC(=O)N[C@@H](C)C(=O)N2CCC[C@H]2C(=O)N2CCC[C@H]2C(=O)N2CCC[C@H]2C(=O)N[C@@H](CO)C(N)=O)C(C)C)NC(=O)[C@H](CCCCN)NC(=O)[C@H](C)NC1=O [mt-168] (H-YSQGTFTSDYSIYLDEQKAKEFVNWLLAGGPSSGAPPPS-NH2; lactam 18-21; N-terminus assumed) |  |  |  |  |  |  | 0.32 |  | 1.45 | 4.79 | 2.61
5 | CCCCCCCCCCCCCC(=O)NCCCC[C@H](NC(=O)[C@H](CC(=O)O)NC(=O)[C@H](CO)NC(=O)[C@@H](NC(=O)[C@H](Cc1ccccc1)NC(=O)[C@@H](NC(=O)CNC(=O)[C@H](CCC(=O)O)NC(=O)C(C)(C)NC(=O)[C@@H](N)Cc1ccc(O)cc1)[C@@H](C)O)[C@@H](C)O)C(=O)N[C@@H](CO)C(=O)N[C@H](C(=O)N[C@@H](Cc1ccc(O)cc1)C(=O)N[C@@H](CC(C)C)C(=O)N[C@@H](CC(=O)O)C(=O)N[C@@H](CCCCN)C(=O)N[C@@H](CCC(N)=O)C(=O)N[C@@H](C)C(=O)N[C@@H](C)C(=O)NC(C)(C)C(=O)N[C@@H](CCC(=O)O)C(=O)N[C@@H](Cc1ccccc1)C(=O)N[C@H](C(=O)N[C@@H](CC(N)=O)C(=O)N[C@@H](Cc1c[nH]c2ccccc12)C(=O)N[C@@H](CC(C)C)C(=O)N[C@@H](CC(C)C)C(=O)N[C@@H](C)C(=O)NCC(=O)NCC(=O)N1CCC[C@H]1C(=O)N[C@@H](CO)C(=O)N[C@@H](CO)C(=O)NCC(=O)N[C@@H](C)C(=O)N1CCC[C@H]1C(=O)N1CCC[C@H]1C(=O)N1CCC[C@H]1C(=O)N[C@@H](CO)C(N)=O)C(C)C)[C@@H](C)CC [mt-269] (H-Y[Aib]EGTFTSDK(Myristoyl)SIYLDKQAA[Aib]EFVNWLLAGGPSSGAPPPS-NH2; N-terminus assumed) | 0.0057 | 140.35 | 0.0136 | 144.85 | 183 | 0.11 |  |  |  |  | 
6 | CC[C@H](C)[C@H](NC(=O)[C@H](CO)NC(=O)[C@H](Cc1ccc(O)cc1)NC(=O)[C@H](CC(=O)O)NC(=O)[C@H](CO)NC(=O)[C@@H](NC(=O)[C@H](Cc1ccccc1)NC(=O)[C@@H](NC(=O)CNC(=O)[C@H](CCC(N)=O)NC(=O)[C@H](CO)NC(=O)CNC(=O)c1ccccc1)[C@@H](C)O)[C@@H](C)O)C(=O)N[C@@H](Cc1ccc(O)cc1)C(=O)N[C@@H](CC(C)C)C(=O)N[C@@H](CC(=O)O)C(=O)N[C@H]1CCC(=O)NCCCC[C@@H](C(=O)N[C@@H](CCC(=O)O)C(=O)N[C@@H](Cc2ccccc2)C(=O)N[C@H](C(=O)N[C@@H](CC(N)=O)C(=O)N[C@@H](Cc2c[nH]c3ccccc23)C(=O)N[C@@H](CC(C)C)C(=O)N[C@@H](CC(C)C)C(=O)N[C@@H](C)C(=O)NCC(=O)NCC(=O)N2CCC[C@H]2C(=O)N[C@@H](CO)C(=O)N[C@@H](CO)C(=O)NCC(=O)N[C@@H](C)C(=O)N2CCC[C@H]2C(=O)N2CCC[C@H]2C(=O)N2CCC[C@H]2C(=O)N[C@@H](CO)C(N)=O)C(C)C)NC(=O)[C@H](C)NC(=O)[C@H](C)NC(=O)[C@H](CCC(N)=O)NC1=O [mt-154] (Bz-GSQGTFTSDYSIYLDEQAAKEFVNWLLAGGPSSGAPPPS-NH2; lactam 16-20) |  |  |  |  |  |  | 1.07 |  | 0.70 | 7.40 | 

Source: patent US9062124B2, “GIP-based mixed agonists for treatment of metabolic disorders and obesity” (priority 2008, dated 2015)
